IC50 data for twelve compounds are collected here from US8440653B2, “3-substituted-1,4-diazepan-2-one melanocortin-5 receptor antagonists” (Mimetica Pty Ltd, priority 2008, dated 2013).

pIC50: −log10 of the molar value.

In the experiment the target is T1, human MC5R (hMC5R) (Homo sapiens, UniProt P33032).
T1 construct: purchased Perkin Elmer RBXMC5M400UA
T1 sequence (P33032 whole entry): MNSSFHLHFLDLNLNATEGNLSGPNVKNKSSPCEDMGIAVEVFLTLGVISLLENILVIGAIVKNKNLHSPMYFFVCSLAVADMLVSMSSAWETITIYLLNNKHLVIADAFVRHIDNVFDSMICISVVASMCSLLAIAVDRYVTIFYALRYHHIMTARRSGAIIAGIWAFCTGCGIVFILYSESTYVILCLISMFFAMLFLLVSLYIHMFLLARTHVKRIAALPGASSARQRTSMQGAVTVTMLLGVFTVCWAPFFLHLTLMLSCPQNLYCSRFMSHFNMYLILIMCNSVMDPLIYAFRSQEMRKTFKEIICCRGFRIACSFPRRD
Nature of the experiment: Human MC5R radioligand binding assay ([125I] NDP-MSH displacement). The settings on record: hMC5R membranes, [125I] NDP-MSH; tested as trifluoroacetate or hydrochloride salts or free bases; read-out: MC5R radioligand IC50. The method, then: Assessments of compound binding to human MC5R (hMC5R) by displacement of an ^125I-labeled NDP-MSH receptor ligand peptide were performed essentially as described in the data sheets produced by Perkin Elmer to accompany their frozen hMC5R membranes (Perkin Elmer catalog number RBXMC5M400UA).
Na^125I (0.5 mCi, 17.4 Ci/mg) was added to 50 μL sodium phosphate (50 mM, pH 7.4) in an eppendorf tube precoated with IODOGEN. After incubation for 10 mins the phosphate buffer containing the iodine was added to NDP-MSH (10 ul at 1 mg/mL) in a separate eppendorf tube. This was incubated for a further 10 mins. The iodinated NDP-MSH was purified by HPLC on a Zorbax SB 300 column using solvent A: 0.05% TFA and solvent B: 90% acetonitrile 0.045% TFA with a linear gradient, 0-67% B over 60 mins. The ^125I NDP-MSH eluted at 52 min after the unlabeled starting material (48 min) and was counted and stored in the freezer.
Incubation buffer: 25 mM HEPES-KOH (pH 7.0), 1.5 mM CaCl2, 1 mM MgSO4, 0.1 M NaCl, 1 mM 1,10-phenanthroline, and 1 Complete™ protease inhibitor tablet/100 mL (Roche, catalog number 1873580)
Perkin Elmer frozen hMC5 membranes: catalog number RBXMC5M400UA, 0.4 mL/vial; 400 microassays/vial. 0.78 mg/mL protein concentration
Vials of frozen membranes were thawed rapidly immediately before use, diluted with binding buffer and vortexed. Resuspended membranes were kept on ice until they were added to the wells of the plate.
Assays were performed in 96 well polypropylene plates. […] This was incubated for 1 hr at 37° C. […] Non-specific binding just under 5%.
Representative compounds of the present invention were tested for binding in the hMC5R assay as in Example 46, as listed in Table 3. The compounds were tested as their trifluoroacetate or hydrochloride salts, or as their free bases.
Take `CC[C@H](CN1CC[C@@H](CNC(=O)c2ccc3ccccc3c2)N[C@@H](CCC(=O)NC2CCCCC2)C1=O)c1ccccc1` [Compound 73, N-(((3S,5S)-3-(3-(cyclohexylamino)-3-oxopropyl)-2-oxo-1-((S)-2-phenylbutyl)-1,4-diazepan-5-yl)methyl)-2-naphthamide]: the pIC50 was over 6.00.

As to `O=C(/C=C/c1ccc(Cl)cc1)NC[C@@H]1CCN(CC(c2ccccc2)c2ccccc2)C(=O)[C@H](Cc2c[nH]cn2)N1` [Compound 63, (E)-N-(((3S,5S)-3-((1H-imidazol-4-yl)methyl)-1-(2,2-diphenylethyl)-2-oxo-1,4-diazepan-5-yl)methyl)-3-(4-chlorophenyl)acrylamide], the pIC50 is over 5.00. Turning to `O=C(/C=C/c1ccc(Cl)cc1)NC[C@@H]1CCN(CC(c2ccccc2)c2ccccc2)C(=O)[C@H](Cc2ccccn2)N1` [Compound 45, (E)-3-(4-chlorophenyl)-N-(((3S,5S)-1-(2,2-diphenylethyl)-2-oxo-3-(pyridin-2-ylmethyl)-1,4-diazepan-5-yl)methyl)acrylamide], the pIC50 is over 5.00. The result for `CC[C@H](CN1CC[C@@H](CNC(=O)c2ccc(Cl)c(Cl)c2)N[C@@H](CCC(=O)N2CCCCC2)C1=O)c1ccccc1` [Compound 67, 3,4-dichloro-N-(((3S,5S)-2-oxo-3-(3-oxo-3-(piperidin-1-yl)propyl)-1-((S)-2-phenylbutyl)-1,4-diazepan-5-yl)methyl)benzamide] reads over 5.00; that for `CCCC[C@@H]1N[C@H](CNC(=O)c2ccc3cc(Cl)ccc3c2)CCN(C[C@@H](CC)c2ccccc2)C1=O` [Compound 70, N-(((3S,5S)-3-butyl-2-oxo-1-((S)-2-phenylbutyl)-1,4-diazepan-5-yl)methyl)-6-chloro-2-naphthamide], over 6.00; that for `O=C(NC[C@@H]1CCN(CC(c2ccccc2)c2ccccc2)C(=O)[C@H](CCC(=O)N2CCCCC2)N1)c1ccc2ccccc2c1` [Compound 55, N-(((3S,5S)-1-(2,2-diphenylethyl)-2-oxo-3-(3-oxo-3-(piperidin-1-yl)propyl)-1,4-diazepan-5-yl)methyl)-2-naphthamide], over 6.00.

With `O=C(NC[C@@H]1CCN(CC(c2ccccc2)c2ccccc2)C(=O)[C@H](CCC2CCCCC2)N1)c1ccc2ccccc2c1` [Compound 59, N-(((3S,5S)-3-(2-cyclohexylethyl)-1-(2,2-diphenylethyl)-2-oxo-1,4-diazepan-5-yl)methyl)-2-naphthamide], the pIC50 is over 6.00.

`O=C(NC[C@@H]1CCN(CC(c2ccccc2)c2ccccc2)C(=O)[C@H](CC2CCCCC2)N1)c1ccc2ccccc2c1` [Compound 53, N-(((3S,5S)-3-(cyclohexylmethyl)-1-(2,2-diphenylethyl)-2-oxo-1,4-diazepan-5-yl)methyl)-2-naphthamide]: the pIC50 was over 6.00. Turning to `O=C(NC[C@@H]1CCN(CC(c2ccccc2)c2ccccc2)C(=O)[C@H](CCc2ccccc2)N1)c1ccc2ccccc2c1` [Compound 57, N-(((3S,5S)-1-(2,2-diphenylethyl)-2-oxo-3-phenethyl-1,4-diazepan-5-yl)methyl)-2-naphthamide], the negative logarithm of the IC50 (pIC50) was over 6.00. In the case of `CCCCN(C)C(=O)CC[C@@H]1N[C@H](CNC(=O)c2ccc3ccccc3c2)CCN(C[C@@H](CC)c2ccccc2)C1=O` [Compound 72, N-(((3S,5S)-3-(3-(butyl(methyl)amino)-3-oxopropyl)-2-oxo-1-((S)-2-phenylbutyl)-1,4-diazepan-5-yl)methyl)-2-naphthamide], the pIC50 was over 6.00. The result for `O=C(NC[C@@H]1CCN(CC(c2ccccc2)c2ccccc2)C(=O)[C@H](Cc2cccnc2)N1)c1ccc2ccccc2c1` [Compound 47, N-(((3S,5S)-1-(2,2-diphenylethyl)-2-oxo-3-(pyridin-3-ylmethyl)-1,4-diazepan-5-yl)methyl)-2-naphthamide] reads over 6.00; that for `O=C(NC[C@@H]1CCN(CC(c2ccccc2)c2ccccc2)C(=O)[C@H](Cc2ccccc2)N1)c1ccc2ccccc2c1` [Compound 61, N-(((3S,5S)-3-benzyl-1-(2,2-diphenylethyl)-2-oxo-1,4-diazepan-5-yl)methyl)-2-naphthamide], over 6.00.
